Assay results: patent publication US11123355B2, “Antiviral benzyl-amine phosphodiamide compounds” (Merck Sharp & Dohme Corp., priority 2016, dated 2021)
Like-named read-outs stand apart in the source and are kept apart here.

System: HIV-1 (H9/IIB strain)
Assay: Multiple Round HIV-1 Infection Assay (Viking Assay) in MT4-GFP cells
Assay type: cell-based
Details: inhibition of reproductive ratio R0
Description: Assessing antiviral potency in a Multiple Round HIV-1 Infection Assay (Viking Assay) The antiviral activity of the tenofovir prodrugs of the Examples herein was assessed in an assay that measures the rate of replication of HIV in cell culture, termed the Viking assay (VIral KINetics in Green cells) and performed as follows. HIV-1 replication was monitored using MT4-gag-GFP clone D3 (hereafter designated MT4-GFP), which are MT-4 cells modified to harbor a GFP reporter gene, the expression of which is dependent on the HIV-1 expressed proteins tat and rev. Productive infection of an MT4-GFP cell with HIV-1 results in GFP expression approximately 24 h post-infection. MT4-GFP cells were maintained at 37° C./5% CO2/90% relative humidity in RPMI 1640 supplemented with 10/o fetal bovine serum, 100 U/ml penicillin/streptomycin, and 400 μg/ml G418 to maintain the reporter gene. For infections, MT4-GFP cells were placed in the same medium lacking G418 and infected overnight with HIV-1 (H9/IIB strain) virus at an approximate multiplicity of infection of 0.01 in the same incubation conditions. Cells were then washed and re-suspended in either RPMI 1640 supplemented with 10% or 50% normal human serum (NHS) at 1.6×10^5 cells/mL (10% NHS or 50% NHS, respectively). Compound plates were prepared by dispensing compounds dissolved in DMSO into wells of 384 well poly-D-lysine-coated plates (0.2 μl/well) using an ECHO acoustic dispenser. Each compound was tested in a 10-point serial 3-fold dilution (typical final concentrations: 8.4 μM-0.42 nM). Controls included no inhibitor (DMSO only) and a combination of three antiviral agents (efavirenz, indinavir, an in-house integrase strand transfer inhibitor at final concentrations of 4 μM each). Cells were added (50 μL/well) to compound plates and the infected cells were maintained at 37° C./5% CO2/90% relative humidity.
Infected cells were quantified at two time points, ˜48 h and ˜72 h post-infection, by counting the number of green cells in each well using an Acumen eX3 scanner. The increase in the number of green cells over ˜24 h period gives the reproductive ratio, R0, which is typically 5-15 and has been shown experimentally to be in logarithmic phase (data not shown). Inhibition of R0 is calculated for each well, and IC50s determined by non-linear 4-parameter curve fitting.

[1] = MT4-GFP cells infected with HIV-1, 10% normal human serum, read-out: Viking, IC50 (10% NHS)
[2] = MT4-GFP cells infected with HIV-1, 50% normal human serum, read-out: Viking, IC50 (50% NHS)
[3] = Human immunodeficiency virus 1, MT4-GFP cells infected with HIV-1, 10% normal human serum, read-out: Viking, IC50 (10% NHS)
[4] = Human immunodeficiency virus 1, MT4-GFP cells infected with HIV-1, 50% normal human serum, read-out: Viking, IC50 (50% NHS)

| SMILES | IC50 [1] [nM] | IC50 [2] [nM] | IC50 [3] [nM] | IC50 [4] [nM] |
| --- | --- | --- | --- | --- |
| CCCOC(=O)C(C)(C)N[P@@](=O)(CO[C@H](C)Cn1cnc2c(N)ncnc21)N[C@@H](c1ccc(C#N)cc1)C(F)(F)F.CCCOC(=O)C(C)(C)N[P@](=O)(CO[C@H](C)Cn1cnc2c(N)ncnc21)N[C@@H](c1ccc(C#N)cc1)C(F)(F)F (mixture of isomers) [Example 24A, propyl 2-(((R)-((((R)-1-(6-amino-9H-purin-9-yl)propan-2-yl)oxy)methyl)(((S)-1-(4-cyanophenyl)-2,2,2-trifluoroethyl)amino)phosphoryl)amino)-2-methylpropanoate and propyl 2-(((S)-((((R)-1-(6-amino-9H-purin-9-yl)propan-2-yl)oxy)methyl)(((S)-1-(4-cyanophenyl)-2,2,2-trifluoroethyl)amino)phosphoryl)amino)-2-methylpropanoate] | 6.3 | 30 |  |  |
| CCCOC(=O)C(C)(C)N[P@@](=O)(CO[C@H](C)Cn1cnc2c(N)ncnc21)N[C@@H](c1ccc(C#N)cc1)C(F)(F)F.CCCOC(=O)C(C)(C)N[P@](=O)(CO[C@H](C)Cn1cnc2c(N)ncnc21)N[C@@H](c1ccc(C#N)cc1)C(F)(F)F (mixture of isomers) [Example 24B, propyl 2-(((R)-((((R)-1-(6-amino-9H-purin-9-yl)propan-2-yl)oxy)methyl)(((S)-1-(4-cyanophenyl)-2,2,2-trifluoroethyl)amino)phosphoryl)amino)-2-methylpropanoate and propyl 2-(((S)-((((R)-1-(6-amino-9H-purin-9-yl)propan-2-yl)oxy)methyl)(((S)-1-(4-cyanophenyl)-2,2,2-trifluoroethyl)amino)phosphoryl)amino)-2-methylpropanoate] | 22 | 170 |  |  |
| CCCOC(=O)C(C)(C)NP(=O)(CO[C@H](C)Cn1cnc2c(N)ncnc21)N(C)[C@H](C)c1ccc(Cl)cc1 (single isomer, unassigned) [Example 2B] |  |  | 2 | 9.6 |
| CCCOC(=O)C(C)(C)N[P@@](=O)(CO[C@H](C)Cn1cnc2c(N)ncnc21)N[C@H](c1ccc(OC(F)(F)F)cc1)C(F)(F)F (single isomer, unassigned) [Example 27B] | 52 | 250 |  |  |
| CCCOC(=O)C(C)(C)NP(=O)(CO[C@H](C)Cn1cnc2c(N)ncnc21)N[C@H](C)c1ccc(Cl)cc1 (stereo partly drawn) [Example 1A, propyl 2-(((R)-((((R)-1-(6-amino-9H-purin-9-yl)propan-2-yl)oxy)methyl(((R)-1-(4-chlorophenyl)ethyl)amino)phosphoryl)amino)-2-methylpropanoate and propyl 2-(((S)-((((R)-1-(6-amino-9H-purin-9-yl)propan-2-yl)oxy)methyl)(((R)-1-(4-chlorophenyl)ethyl)amino)phosphoryl)amino)-2-methylpropanoate] |  |  | 120 | 710 |
| CCCOC(=O)C(C)(C)NP(=O)(CO[C@H](C)Cn1cnc2c(N)ncnc21)N(C)[C@H](C)c1ccc(Cl)cc1 (stereo partly drawn) [Example 2A, propyl 2-(((R)-((((R)-1-(6-amino-9H-purin-9-yl)propan-2-yl)oxy)methyl(((R)-1-(4-chlorophenyl)ethyl)(methyl)amino)phosphonyl)amino)-2-methylpropanoate and propyl 2-(((S)-((((R)-1-(6-amino-9H-purin-9-yl)propan-2-yl)oxy)methyl)(((R)-1-(4-chlorophenyl)ethyl)(methyl)amino)phosphoryl)amino)-2-methylpropanoate] |  |  | 43 | 130 |
| CCCOC(=O)C(C)(C)NP(=O)(CO[C@H](C)Cn1cnc2c(N)ncnc21)N[C@H](C)c1ccc(OC(F)(F)F)cc1 (stereo partly drawn) [Example 3A] |  |  | 80 | 780 |
| CCCOC(=O)C(C)(C)NP(=O)(CO[C@H](C)Cn1cnc2c(N)ncnc21)N[C@H](c1ccc(OC(F)(F)F)cc1)C(F)(F)F (stereo partly drawn) [Example 4B] | 16 | 160 |  |  |
| CCCOC(=O)C(C)(C)N[P@@](=O)(CO[C@H](C)Cn1cnc2c(N)ncnc21)NCc1ccc(OC(F)(F)F)cc1 [Example 7B, propyl 2-(((R)-((((R)-1-(6-amino-9H-purin-9-yl)propan-2-yl)oxy)methyl)((4-(trifluoromethoxy)benzyl)amino)phos-phoryl)amino)-2-methylpropanoate and propyl 2-(((S)-((((R)-1-(6-amino-9H-purin-9-yl)propan-2-yl)oxy)methyl)((4-(trifluoromethoxy)benzyl)amino)phos-phoryl)amino)-2-methylpropanoate] | 45 | 300 |  |  |
| CCCOC(=O)C(C)(C)N[P@@](=O)(CO[C@H](C)Cn1cnc2c(N)ncnc21)N[C@H](C)c1cccc(F)c1 [Example 9A, propyl 2-(((R)-((((R)-1-(6-amino-9H-purin-9-yl)propan-2-yl)oxy)methyl)(((R)-1-(3-fluorophenyl)ethyl)amino)phosphoryl)ami-no)-2-methylpropanoate and propyl 2-(((S)-((((R)-1-(6-amino-9H-purin-9-yl)propan-2-yl)oxy)methyl)(((R)-1-(3-fluorophenyl)ethyl)amino)phosphoryl)ami-no)-2-methylpropanoate] | 89 | 940 |  |  |
| CCCOC(=O)C(C)(C)N[P@@](=O)(CO[C@H](C)Cn1cnc2c(N)ncnc21)N[C@@H](C)c1cccc(F)c1 [Example 10A, propyl 2-(((R)-((((R)-1-(6-amino-9H-purin-9-yl)propan-2-yl)oxy)methyl)(((S)-1-(3-fluorophenyl)ethyl)amino)phosphoryl)ami-no)-2-methylpropanoate and propyl 2-(((S)-((((R)-1-(6-amino-9H-purin-9-yl)propan-2-yl)oxy)methyl)(((S)-1-(3-fluorophenyl)ethyl)amino)phosphoryl)ami-no)-2-methylpropanoate] | 68 | 560 |  |  |
| CCCOC(=O)C(C)(C)N[P@@](=O)(CO[C@H](C)Cn1cnc2c(N)ncnc21)N[C@@H](C)c1cccc(F)c1 [Example 10B, propyl 2-(((R)-((((R)-1-(6-amino-9H-purin-9-yl)propan-2-yl)oxy)methyl)(((S)-1-(3-fluorophenyl)ethyl)amino)phosphoryl)ami-no)-2-methylpropanoate and propyl 2-(((S)-((((R)-1-(6-amino-9H-purin-9-yl)propan-2-yl)oxy)methyl)(((S)-1-(3-fluorophenyl)ethyl)amino)phosphoryl)ami-no)-2-methylpropanoate] | 99 | 490 |  |  |
| CCCOC(=O)C(C)(C)NP(=O)(CO[C@H](C)Cn1cnc2c(N)ncnc21)N[C@@H](C)c1ccc(C(F)(F)F)cc1 (stereo partly drawn) [Example 11A, propyl 2-(((R)-((((R)-1-(6-amino-9H-purin-9-yl)propan-2-yl)oxy)methyl)(((S)-1-(4-(trifluoromethyl)phenyl)ethyl)amino)phos-phoryl)amino)-2-methylpropanoate and propyl 2-(((S)-((((R)-1-(6-amino-9H-purin-9-yl)propan-2-yl)oxy)methyl)(((S)-1-(4-(trifluoromethyl)phenyl)ethyl)amino)phosphoryl)amino)-2-methylpropanoate] | 4.6 | 42 |  |  |
| CCCOC(=O)C(C)(C)NP(=O)(CO[C@H](C)Cn1cnc2c(N)ncnc21)N[C@@H](C)c1ccc(C(F)(F)F)cc1 (stereo partly drawn) [Example 11B, propyl 2-(((R)-((((R)-1-(6-amino-9H-purin-9-yl)propan-2-yl)oxy)methyl)(((S)-1-(4-(trifluoromethyl)phenyl)ethyl)amino)phos-phoryl)amino)-2-methylpropanoate and propyl 2-(((S)-((((R)-1-(6-amino-9H-purin-9-yl)propan-2-yl)oxy)methyl)(((S)-1-(4-(trifluoromethyl)phenyl)ethyl)amino)phosphoryl)amino)-2-methylpropanoate] | 16 | 84 |  |  |
| CCCOC(=O)C(C)(C)NP(=O)(CO[C@H](C)Cn1cnc2c(N)ncnc21)N[C@H](C)c1ccc(C(F)(F)F)cc1 (stereo partly drawn) [Example 12A, propyl 2-(((R)-((((R)-1-(6-amino-9H-purin-9-yl)propan-2-yl)oxy)methyl)(((R)-1-(4-(trifluoromethyl)phenyl)ethyl)amino)phos-phoryl)amino)-2-methylpropanoate and propyl 2-(((S)-((((R)-1-(6-amino-9H-purin-9-yl)propan-2-yl)oxy)methyl)(((R)-1-(4-(trifluoromethyl)phenyl)ethyl)amino)phos-phoryl)amino)-2-methylpropanoate] | 96 | 680 |  |  |
